Measured values: patent US20240200022A1, “METHODS AND SYSTEMS FOR THE CULTURE OF CELLS AT LIQUID-LIQUID INTERFACES” (QUEEN MARY UNIVERSITY OF LONDON, priority 2017, published 2024)

Key:
Type in all cases: cell-based, human
[1] = tested on: HaCaT cells; assay: HaCaT cell spreading assay on oil interfaces (cell area from phalloidin staining); details: HaCaT on BSA interfaces, Novec 7500+PFBC; blebbistatin 10 μM, Y27632 10 μM, Cytochalasin D 1 μM
Procedure: Generation of fluorinated oil droplet substrates for cell culture. Thin glass slides (25×60 mm, VWR) were plasma oxidized for 10 minutes and placed into a staining jar. Toluene (1 mL, Sigma-Aldrich) and 30 μL trichloro (1H, 1H, 2H, 2H-perfluorooctyl) silane (Sigma-Aldrich) were added in a glass vial. The staining jar containing the glass slides and the glass vial with the silane solution were placed into a desiccator under vacuum for 5 min and then left under reduced atmosphere but sealed overnight. The fluorinated glass slides were cut into chips (1×1 cm) and placed into a 24 well plate. After sterilisation with 70% ethanol, the wells were washed (twice) and then filled with 2 mL PBS (pH 7.4, except when specified, for the adsorption of poly(L-lysine) at pH 10.5). 100 tL droplets of fluorinated oil (Novec 7500) with fluorinated surfactant (2,3,4,5,6-Pentafluorobenzoyl chloride) at specified concentrations (see specific experiments, but often 0.01 mg/mL) were deposited on top of the glass slide and formed a fluorinated oil droplet spreading over the entire substrate. […] For the deposition of BSA, a 10 μL BSA solution (100 mg/mL) was added into PBS, to make a final concentration of 1 mg/mL, and incubated for 1 h.
HaCaT keratinocyte cell line culture and seeding. Human keratinocyte HaCaT cells were cultured in DMEM (Thermofisher Scientific) containing 10% foetal bovine serum (FBS, Labtech), 1% L-Glutamine (200 mM) and 1% Penicillin-Streptomycin (5,000 U/mL). […] For cell spreading assays HaCaT cells were harvested and seeded onto fluorinated droplets at a density of 25,000 per well (13,000 per cm^2).
Immuno-fluorescence microscopy and data analysis. Fluorescence microscopy images were acquired with a Leica DMI4000B fluorescence microscopy (CTR4000 lamp; 63×1.25 NA, oil lens; 10×0.3 NA lens; 2.5×0.07 NA lens; DFC300FX camera). […] To determine adhesion cell areas, images were analyzed by thresholding and watershedding fluorescence images of the cytoskeleton (phalloidin stained). […]

[2] = tested on: MSCs; assay: MSC culture on fluorinated oils conditioned with culture medium only; details: after 7 days of culture; no protein nanosheets deposition, conditioning with cell culture medium
Procedure: (§1) Generation of liquid-liquid (FC-40) interfaces for cell culture. 24 well plates were plasma oxidized using a plasma coater (Diener, 100% intensity) for 10 minutes. 500 mL ethanol (VWR chemicals), 10 mL trimethylamine (Sigma-Aldrich) and 10 mL of the desired silane (triethoxy(octyl)silane (Sigma-Aldrich) to prepare interfaces with liquid PDMS, or trichloro (1H, 1H, 2H, 2H-perfluorooctyl) silane (Sigma-Aldrich) for the fluorinated oil) were added into each well. Ethanol was added in between wells to slow down evaporation and parafilm was used to seal the well plate lid. After incubating for 24 h, the wells were washed in a sterile environment with ethanol (twice) and ddH2O (three times). 500 μL FC-40 (Sigma) was added in the fluorophilic 24 well plate to form the bottom liquid layer, 2 mL of MSC growth medium was directly added on the FC-40 layer, 5K cells were seeded in each well.

[3] = tested on: primary keratinocytes; assay: Keratinocyte cell sheet formation on flat fluorinated oil interfaces; details: FAD medium containing ROCK inhibitor, 10 μM; PLL-functionalised fluorinated oil
Description: Keratinocyte culture and seeding.
Immunofluorescence staining and antibodies.
Immuno-fluorescence microscopy and data analysis. Fluorescence microscopy images were acquired with a Leica DMI4000B fluorescence microscopy (CTR4000 lamp; 63×1.25 NA, oil lens; 10×0.3 NA lens; 2.5×0.07 NA lens; DFC300FX camera). Confocal microscopy images were acquired with a Leica TCS SP2 confocal and multiphoton microscope (X-Cite 120 LED lamp; 63×1.40-0.60 NA, oil lens; 10×0.3 NA lens; DFC420C CCD camera). To determine cell densities per mm^2, cell counting was carried out by thresholding and watershedding nuclei images in ImageJ. […] To determine adhesion cell areas, images were analyzed by thresholding and watershedding fluorescence images of the cytoskeleton (phalloidin stained). The area of cell clusters was removed when analysing results.

[4] = tested on: HaCaT cells; assay: HaCaT cell proliferation on liquid substrates (Hoechst staining); details: fluorinated oil supplemented with the surfactant
Procedure: as §1, with “liquid-liquid” for “liquid-liquid (FC-40)”, “[…]” for “mL”, “PDMS” for “PDMS,”, “cover.” for “lid.”, “500 μL FC-40 (Sigma) was added in the fluorophilic 24 well plate to form the bottom liquid layer, 2 mL of MSC growth medium was directly added on the FC-40 layer, 5K cells were seeded in each well.” left out
Hoechst staining and LIVE/DEAD cell viability assay. Cell proliferation was assessed via Hoechst staining. […] Viability of HaCaT cells on fluorinated oil interfaces was quantified by LIVE/DEAD viability/cytotoxicity assay using a kit supplied by Thermofisher Scientific. In brief, HaCaT cells were incubated in DMEM with 2 μM Calcein AM and 4 μM Ethidium homodimer for 30 min. stained cells were imaged using a Leica DM14000 fluorescence microscopy (see below). The percentage of viable cells was calculated by counting the number of green (live) cells and dividing by the total number of cells (including dead cells).
Immuno-fluorescence microscopy and data analysis. […]

SMILES | cell spreading on oil [1] | other results
Cc1ccc2c(c1)C(=O)C1(O)CCN(c3ccccc3)C1=N2 (stereo not drawn) [Blebbistatin, blebbistatin] | slight increase | 
CCOC(F)(C(F)(F)C(F)(F)C(F)(F)F)C(F)(C(F)(F)F)C(F)(F)F (stereo not drawn) [Novec 7500, hexane, 3-ethoxy-1,1,1,2,3,4,4,5,5,6,6,6-dodecafluoro-2-(trifluoromethyl)] |  | MSC proliferation [2]: did not lead to any significant cell proliferation
C[C@@H](N)[C@H]1CC[C@H](C(=O)Nc2ccncc2)CC1 [Y27632] | further decreased | integrity of keratinocyte cell sheets on oil [3]: preserved their integrity
C=C1[C@@H](C)[C@H]2[C@H](Cc3ccccc3)NC(=O)[C@]23[C@H](OC(C)=O)/C=C/[C@@](C)(O)C(=O)[C@@H](C)C/C=C/[C@H]3[C@@H]1O [cytochalasin D, Cytochalasin D] | further decreased | 
O=C(Cl)c1c(F)c(F)c(F)c(F)c1F [pentafluorobenzoyl chloride, 2,3,4,5,6-pentafluorobenzoyl chloride] |  | HaCaT cell proliferation at the surface of fluorinated oil [4]: proliferated
